Measurements: ChEMBL document CHEMBL1147193, “New 5-substituted thiazolo[3,2-b][1,2,4]triazol-6-ones: synthesis and anticancer evaluation” (2007)

Tests used:
Assay type in all cases: functional
[1] = test system: OVCAR-3; assay: Growth inhibition of human OVCAR-3 cells after 48 hrs by SRB protein assay; settings: OVCAR-3, 48 h
[2] = test system: OVCAR-4; assay: Growth inhibition of human OVCAR4 cells after 48 hrs by SRB protein assay; settings: OVCAR-4, 48 h
[3] = test system: OVCAR-5; assay: Growth inhibition of human OVCAR5 cells after 48 hrs by SRB protein assay; settings: OVCAR-5, 48 h
[4] = test system: OVCAR-8; assay: Growth inhibition of human OVCAR8 cells after 48 hrs by SRB protein assay; settings: OVCAR-8, 48 h
[5] = test system: 786-0; assay: Growth inhibition of human 786-0 cells after 48 hrs by SRB protein assay; settings: 786-0, 48 h
[6] = test system: ACHN; assay: Growth inhibition of human ACHN cells after 48 hrs by SRB protein assay
[7] = test system: CAKI-1; assay: Growth inhibition of human CAKI1 cells after 48 hrs by SRB protein assay; settings: CAKI-1, 48 h
[8] = test system: A549; assay: Growth inhibition of human A549/ATCC cells after 48 hrs by SRB protein assay; settings: A549, 48 h
[9] = test system: IGROV-1; assay: Growth inhibition of human IGROV1 cells after 48 hrs by SRB protein assay; settings: IGROV-1, 48 h
[10] = test system: SW-620; assay: Growth inhibition of human SW620 cells after 48 hrs by SRB protein assay; settings: SW-620, 48 h
[11] = test system: BT-549; assay: Growth inhibition of human BT549 cells after 48 hrs by SRB protein assay; settings: BT-549, 48 h
[12] = test system: Hs-578T; assay: Growth inhibition of human HS578T cells after 48 hrs by SRB protein assay
[13] = test system: RPMI-8226; assay: Growth inhibition of human RPMI8226 cells after 48 hrs by SRB protein assay; settings: RPMI-8226, 48 h
[14] = test system: SF-268; assay: Anticancer activity against human SF268 cells assessed as growth of cells at 100 uM relative to untreated cells
[15] = test system: K562; assay: Growth inhibition of human K562 cells after 48 hrs by SRB protein assay; settings: K562, 48 h
[16] = test system: HOP-62; assay: Growth inhibition of human HOP62 cells after 48 hrs by SRB protein assay; settings: HOP-62, 48 h
[17] = test system: HOP-92; assay: Growth inhibition of human HOP92 cells after 48 hrs by SRB protein assay; settings: HOP-92, 48 h
[18] = test system: NCI-H226; assay: Growth inhibition of human NCI-H226 cells after 48 hrs by SRB protein assay; settings: NCI-H226, 48 h
[19] = test system: NCI-H322M; assay: Growth inhibition of human NCI-H322M cells after 48 hrs by SRB protein assay
[20] = test system: NCI-H460; assay: Growth inhibition of human NCI-H460 cells after 48 hrs by SRB protein assay; settings: NCI-H460, 48 h
[21] = test system: NCI-H522; assay: Growth inhibition of human NCI-H522 cells after 48 hrs by SRB protein assay; settings: NCI-H522, 48 h
[22] = test system: COLO 205; assay: Growth inhibition of human COLO205 cells after 48 hrs by SRB protein assay; settings: COLO 205, 48 h
[23] = test system: HCC 2998; assay: Growth inhibition of human HCC2998 cells after 48 hrs by SRB protein assay; settings: HCC 2998, 48 h
[24] = test system: HCT-15; assay: Growth inhibition of human HCT15 cells after 48 hrs by SRB protein assay; settings: HCT-15, 48 h
[25] = test system: HT-29; assay: Growth inhibition of human HT29 cells after 48 hrs by SRB protein assay; settings: HT-29, 48 h
[26] = Growth inhibition of human MALME 3M cells after 48 hrs by SRB protein assay
[27] = test system: M14; assay: Growth inhibition of human M14 cells after 48 hrs by SRB protein assay; settings: M14, 48 h
[28] = test system: SK-MEL-2; assay: Growth inhibition of human SK-MEL-2 cells after 48 hrs by SRB protein assay; settings: SK-MEL-2, 48 h
[29] = test system: SK-MEL-5; assay: Growth inhibition of human SK-MEL-5 cells after 48 hrs by SRB protein assay; settings: SK-MEL-5, 48 h
[30] = test system: UACC-257; assay: Growth inhibition of human UACC257 cells after 48 hrs by SRB protein assay; settings: UACC-257, 48 h
[31] = test system: UACC-62; assay: Growth inhibition of human UACC62 cells after 48 hrs by SRB protein assay; settings: UACC-62, 48 h
[32] = test system: RXF 393; assay: Growth inhibition of human RXF393 cells after 48 hrs by SRB protein assay; settings: RXF 393, 48 h
[33] = test system: TK-10; assay: Growth inhibition of human TK10 cells after 48 hrs by SRB protein assay; settings: TK-10, 48 h
[34] = test system: SN12C; assay: Growth inhibition of human SN12C cells after 48 hrs by SRB protein assay
[35] = test system: MCF7; assay: Growth inhibition of human MCF7 cells after 48 hrs by SRB protein assay; settings: MCF7, 48 h
[36] = test system: NCI/ADR-RES; assay: Growth inhibition of human NCI/ADR-RES cells after 48 hrs by SRB protein assay
[37] = test system: MDA-MB-435; assay: Growth inhibition of human MDA-MB-435 cells after 48 hrs by SRB protein assay; settings: MDA-MB-435, 48 h
[38] = test system: T47D; assay: Growth inhibition of human T47D cells after 48 hrs by SRB protein assay

GI50 [1]: 37.2 µM | GI50 [2]: 34.7 µM | GI50 [3]: 55 µM | GI50 [4]: 44.7 µM | GI50 [5]: 51.3 µM | GI50 [6]: 81.3 µM | GI50 [8]: 87.1 µM | GI50 [10]: 66.1 µM | GI50 [11]: 42.7 µM | GI50 [13]: 26.3 µM | GI50 [15]: 38.9 µM | GI50 [18]: > 100 µM | GI50 [19]: > 100 µM | GI50 [20]: 61.7 µM | GI50 [21]: 50.1 µM | GI50 [22]: 61.7 µM | GI50 [23]: 63.1 µM | GI50 [24]: 63.1 µM | GI50 [25]: 45.7 µM | GI50 [28]: > 100 µM | GI50 [29]: 41.7 µM | GI50 [35]: 32.4 µM | GI50 [37]: 37.2 µM | GI50 [38]: 91.2 µM
SMILES: O=c1/c(=C/c2ccc(F)cc2)sc2ncnn12
TGI ([1]; read-out: Log TGI (converted)): > 100 µM | TGI ([2]; read-out: Log TGI (converted)): > 100 µM | TGI ([3]; read-out: Log TGI (converted)): > 100 µM | TGI ([4]; read-out: Log TGI (converted)): > 100 µM | TGI ([5]; read-out: Log TGI (converted)): > 100 µM | TGI ([6]; read-out: Log TGI (converted)): > 100 µM | GI50 [7]: 69.2 µM | TGI ([7]; read-out: Log TGI (converted)): > 100 µM | TGI ([8]; read-out: Log TGI (converted)): > 100 µM | GI50 [9]: 57.5 µM | TGI ([9]; read-out: Log TGI (converted)): > 100 µM | TGI ([10]; read-out: Log TGI (converted)): > 100 µM | TGI ([11]; read-out: Log TGI (converted)): 100 µM | GI50 [12]: 69.2 µM | TGI ([12]; read-out: Log TGI (converted)): > 100 µM | TGI ([13]; read-out: Log TGI (converted)): 79.4 µM | Activity [14]: 70% | TGI ([15]; read-out: Log TGI (converted)): > 100 µM | GI50 [16]: 70.8 µM | TGI ([16]; read-out: Log TGI (converted)): > 100 µM | GI50 [17]: 47.9 µM | TGI ([17]; read-out: Log TGI (converted)): > 100 µM | TGI ([18]; read-out: Log TGI (converted)): > 100 µM | TGI ([19]; read-out: Log TGI (converted)): > 100 µM | TGI ([20]; read-out: Log TGI (converted)): > 100 µM | TGI ([21]; read-out: Log TGI (converted)): > 100 µM | TGI ([22]; read-out: Log TGI (converted)): > 100 µM | TGI ([23]; read-out: Log TGI (converted)): > 100 µM | TGI ([24]; read-out: Log TGI (converted)): > 100 µM | TGI ([25]; read-out: Log TGI (converted)): > 100 µM | GI50 [26]: > 100 µM | TGI ([26]; read-out: Log TGI (converted)): > 100 µM | GI50 [27]: 28.8 µM | TGI ([27]; read-out: Log TGI (converted)): > 100 µM | TGI ([28]; read-out: Log TGI (converted)): 51.3 µM | TGI ([29]; read-out: Log TGI (converted)): > 100 µM | GI50 [30]: 95.5 µM | TGI ([30]; read-out: Log TGI (converted)): > 100 µM | GI50 [31]: 66.1 µM | TGI ([31]; read-out: Log TGI (converted)): > 100 µM | GI50 [32]: 46.8 µM | TGI ([32]; read-out: Log TGI (converted)): 100 µM | GI50 [33]: > 100 µM | TGI ([33]; read-out: Log TGI (converted)): > 100 µM | GI50 [34]: 40.7 µM | TGI ([34]; read-out: Log TGI (converted)): > 100 µM | TGI ([35]; read-out: Log TGI (converted)): > 100 µM | GI50 [36]: 38 µM | TGI ([36]; read-out: Log TGI (converted)): > 100 µM | TGI ([37]; read-out: Log TGI (converted)): > 100 µM | TGI ([38]; read-out: Log TGI (converted)): > 100 µM
